Source: article PMC3707052 (Alzheimer's Research & Therapy, 2013)
Where two headings read alike, the source gives them in different places. Each block holds one compound with its values, some of them ahead of it.

Key:
gamma-secretase [1] = biological target: gamma-secretase; parameters: method as in PMID 22505028, PMID 19542625; conditions: weak modulator; cited from earlier work
gamma-secretase [2] = assay: Six-day once-a-day oral dosing PK/PD in Tg2576 mice (brain, plasma, CSF Aβ); format: in vivo; conditions: positive control, orally once on day six, 6 hrs post dose
Protocol: Female transgenic mice (Tg2576, 3 months of age; n = 20), wild-type male CD-1 mice (six weeks of age; n = 8 to 12) or wild-type male Sprague Dawley rats (200 to 225 g body weight; n = 12) were utilized to assess in vivo efficacy.
In the transgenic studies, compound was dosed in 10:20:70 ethanol/solutol/water via oral gavage. […] The mice were subjected to cisterna magna puncture and collection of cerebrospinal fluid (CSF) (approximately 5 μl per mouse). Individual CSF samples were flash-frozen on dry ice and stored at -80°C. Thereafter, the mice were subjected to cardiac puncture and blood samples were collected into K2EDTA tubes and stored on wet ice until processed to plasma by centrifugation (2,000 g at 4°C for 10 minutes) within 30 minutes of collection. The plasma was aliquoted for both Aβ measurements and parent drug using LC/MS/MS. Both sets of tubes were frozen at -80°C. The brains were perfused with non-heparinized saline (the blood flushed away) and removed carefully. Brains were rinsed with ice cold PBS (without Mg^2+ or Ca^2+), blotted dry, dissected on ice into three pieces (left and right hemisphere and cerebellum). Samples were frozen in liquid nitrogen immediately prior to storage at -80°C. Cerebella were analyzed for parent drug via LC/MS/MS. Parent drug levels were compared to a standard curve to establish the plasma, brain and CSF levels. […]

gamma-secretase [3] = assay: Aβ peptides in conditioned media of CHO-2B7 cells (MSD 3-Plex); format: cell-based, Chinese hamster; conditions: for IC50: 5 hrs treatment, conditioned media
Protocol: CHO-2B7 cells (Mayo Clinic) are Chinese hamster ovary cells stably transfected with human βAPP 695wt. The cells were cultured in Ham's F12 media (Thermo Fisher SH30026.01, Waltham, MA, USA) supplemented with 10% FBS, 0.25 mg/mL Zeocin and 90 ug/mL penicillin/streptomycin at 37°C in a 5% CO2 atmosphere. For compound treatment, cells were plated in 96-well plates at a density of 1.0 × 10^5 cells/mL and allowed grow to 100% confluence over two days. Test compounds in dimethyl sulfoxide (DMSO) were diluted 100-fold directly into the media before being adding to the cells. Immediately prior to adding compound-containing media to the cells, the cells were washed once with 1X PBS. Conditioned media from CHO-2B7 cells were collected after 5 hrs of treatment and the levels of Aβ peptides were assessed as described below.
Conditioned media were collected after 5 hrs of treatment and diluted with one volume of MSD blocking buffer (1% BSA in MSD wash buffer). MSD Human (6E10) Aβ 3-Plex plates, which are pre-spotted with three separate spots in each well containing capture antibodies against the unique C-terminal ends of Aβ38, Aβ40 and Aβ42, respectively, were blocked with MSD blocking buffer for one hour. Samples were transferred to the blocked plates with 6E10 detection antibody and incubated for 2 hrs at room temperature with orbital shaking followed by washing and reading according to the manufacturer's instructions (SECTOR® Imager 2400 Meso Scale Discovery, Gaithersburg MD, USA).

Structure (SMILES): C[C@@H](C(=O)O)c1ccc(-c2ccccc2)c(F)c1 [Flurizan]
IC50 (gamma-secretase [1]): 250000 nM

Structure (SMILES): CC(C)CC[C@H](c1ccc(Cl)cc1)N1CC[C@@H](CC(=O)O)C[C@H]1c1ccc(C(F)(F)F)cc1 [Merck GSM-1]
effect on Aβ38 levels (gamma-secretase [2]): increased Aβ38 levels | effect on Aβ42 levels (gamma-secretase [2]): significantly reduced Aβ42

IC50 (gamma-secretase [3]; CHO-2B7 cells, read-out: IC50 Aβ38): 259 nM | IC50 (gamma-secretase [3]; CHO-2B7 cells, read-out: IC50 Aβ40): 2800 nM | IC50 (gamma-secretase [3]; CHO-2B7 cells, read-out: IC50 Aβ42): 106 nM
Structure (SMILES): CCO[C@@H]([C@H]1C[C@@H](C)[C@H]2[C@@H](O1)[C@H](O)[C@@]1(C)[C@@H]3CC[C@H]4C(C)(C)[C@@H](O[C@H]5CN(C6CN(C(C)C)C6)CCO5)CC[C@@]45C[C@@]35CC[C@]21C)C(C)(C)O [SPI-1865]
Total Aβ (gamma-secretase [3]; CHO-2B7 cells): only decreased at doses where cytotoxicity was observed | IC25 Aβ42 (gamma-secretase [3]; in vitro): 33 ± 18 nM
